Assay results published in patent US8338426B2, “Piperazinyl derivatives useful as modulators of the neuropeptide Y2 receptor” (Janssen Pharmaceutica NV, priority 2007, dated 2012).
Like-named read-outs stand apart in the source and are kept apart here.

What was measured:
[1] = biological target: T1, human Y2 receptor (Homo sapiens, UniProt P49146); experiment: Neuropeptide Y2 radioligand binding assay, [125I]PYY, KAN-Ts cells; settings: KANT-S cells, mean ± S.E.M., read-out: hY2 pKi (converted)
T1 construct: KAN-Ts endogenously expressing Y2 receptors were used; endogenous in cells; host or cells: KAN-Ts cells
T1 sequence (P49146 1-381): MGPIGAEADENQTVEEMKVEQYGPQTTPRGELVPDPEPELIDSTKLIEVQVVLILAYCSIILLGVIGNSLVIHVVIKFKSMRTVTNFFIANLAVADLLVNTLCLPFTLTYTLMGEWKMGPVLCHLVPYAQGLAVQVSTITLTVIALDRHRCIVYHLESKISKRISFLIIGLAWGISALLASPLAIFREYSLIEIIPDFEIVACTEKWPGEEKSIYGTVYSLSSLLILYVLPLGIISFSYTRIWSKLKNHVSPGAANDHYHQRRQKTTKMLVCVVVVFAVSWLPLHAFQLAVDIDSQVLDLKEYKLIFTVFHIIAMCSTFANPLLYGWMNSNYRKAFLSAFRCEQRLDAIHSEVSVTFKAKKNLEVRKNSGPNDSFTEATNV
Description: Radioligand binding assays for the human and rat/mouse Y2 receptor were performed as described in Bonaventure, P., D. Nepomuceno, C. Mazur, B. Lord, D. A. Rudolph, J. A. Jablonowski, N. I. Carruthers and T. W. Lovenberg, J Pharmacol Exp Ther. 2004, 308, 1130.
KAN-Ts endogenously expressing Y2 receptors were used, for the rat and mouse Y2 receptor, membranes from rat or mouse hippocampus were prepared. Membranes were incubated with [^125I]PYY (80 pM) in the presence or absence of test compound for 1 h at rt. The reaction was stopped by filtration through GF/C filter plates pre-soaked in 0.3% polyethylenimine and subsequently washed with Tris-HCl, 50 mM, 5 mM EDTA buffer. Plates were dried for 1 h in a 55° C. oven, scintillation fluid was added and the radioactivity was counted in a Packard TopCount. Specific binding to the NPY receptor subtypes was determined by radioactivity that was bound in the presence of 1 μM NPY.
Apparent Ki values were calculated as K=IC50/(1+C/KD), where C is concentration of the radioligand and pKi=−log Ki. Data presented below are expressed as mean±S.E.M.

[2] = biological target: T2, NPY Y2 receptor (Homo sapiens, UniProt P49146); experiment: CEREP binding panel, NPY Y2
T2 sequence (P49146 1-381): T1 sequence (P49146 1-381)
Description: The selectivity of the compound of formula (A) was further evaluated in a large variety of ion-channels, transporters and receptor-binding assays including the Y1 receptor subtype. These assays were performed by CEREP (Celles L'Evescault, France; www.cere.com<http//www.cerea.com>). Selectivity vs the Y5 receptor subtype was evaluated as described in Bonaventure, P., D. Nepomuceno, C. Mazur, B. Lord, D. A. Rudolph, J. A. Jablonowski, N. I. Carruthers and T. W. Lovenberg, J Pharmacol Exp Ther. 2004, 308, 1130.
The compound of formula (A) was assayed by binding in a panel of 50 receptors, ion channels and transporters assays (CEREP) including adenosine (A1,A2A,A3), adrenergic (α1, α2, β1), angiotensin (AT1), dopamine (D1, D2), bradykinin (B2), cholecystokinin (CCKA), galanin (GAL2), melatonin ML1), muscarinic (M1, M2, M3), neurotensin (NTS), neurokinin (NK2, NK3), NPY (Y1, Y2) opiate (m, k, d), serotonin (5-HT1A, 5-HT1B, 5-HT2A, 5-HT3, 5-HT5A, 5-HT6, 5-HT7), somatostatin, vasopressin (V1a), norepinephrine transporter, dopamine transporter and ion channels (sodium, calcium, potassium and chloride).

[3] = Pharmacokinetic study in rats; assay type: in vivo; settings: rat, whole blood; for Vd: iv
Description: The pharmacokinetic, blood-brain barrier penetration and ex vivo receptor occupancy studies were performed as described in Bonaventure, P., D. Nepomuceno, C. Mazur, B. Lord, D. A. Rudolph, J. A. Jablonowski, N. I. Carruthers and T. W. Lovenberg, J Pharmacol Exp Ther. 2004, 308, 1130.
The compound of formula (A) was formulated in 20% hydroxypropylbetacyclodextrine. Subcutaneous (SC), oral (PO) or intravenous (IV) dosing was followed by blood sampling via cardiac puncture over a time course. Blood samples consisted of 250 μl samples taken from the heart using a 23-gauge needle into 1.5 ml micro-centrifuge tubes. Brains were removed from the animals and bisected down the midsagittal plane. One hemisphere was frozen on dry ice for ex vivo receptor binding autoradiography and the other was homogenized for LC/MS-MS analysis.
All blood samples were deproteinized by 1:4 dilution of the sample with acetonitrile with vigorous mixing. These samples were incubated for 5 minutes, and then centrifuged at 14,000 rpm in a micro-centrifuge for 4 minutes. The supernatant was recovered into auto-sampler vials and diluted 1:1 with sterile water. Samples were analyzed by LC-MS/MS. A Vydac SP C18 2.1×50 mm analytical column was used for separation.
Oral, subcutaneous and intravenous pharmacokinetic parameters of the compound of formula (A) were determined in rats and are listed in Table 2 below.

[4] = tested on: amphetamine-induced hyperactivity; experiment: Amphetamine-induced hyperactivity in c57bl6/j mice; assay type: in vivo; settings: 3 and 10 mg/kg i.p., amphetamine 3 mg/kg s.c.
Description: To the extent that ethanol-induced hyperactivity is mediated, at least partially, by the dopaminergic system, additional experiments were designed to evaluate whether the compound of formula (A) attenuates the hyperactivity induced by amphetamine, an indirect dopamine agonist.
Locomotor activity was measured with a Hamilton Kinder motor monitor infrared beam apparatus equipped with a SmartFrame cage rack throughout which basic movements were recorded. These experiments were conducted using a between subject design. Sessions started when 8-10-week old c57bl6/j mice were located in the test cages and they lasted for 180 min. Amphetamine (3 mg/kg, s.c.) was administered 60 min after the beginning of the session. The compound of formula (A) (1,3,10 mg/kg, i.p.) or vehicle was administered 15 min prior to amphetamine and locomotor activity was measured for an additional 120 min. The average of basic movements recorded for 60 min after amphetamine was calculated for each animal. Data were analyzed with one-way analysis of variance (ANOVA) using Graph Pad.

- Ki [1]: 5.5 nM
- inhibition at 1 µM [2]: 100%
- Vd ([3]; read-out: VSS): 0.73 L/kg
- Vd ([3]; read-out: Vz): 1.07 L/kg
- AUC(0-inf) ([3]; IV): 0.708 µM·h
- C0 ([3]; IV): 5.33 µM
- clearance ([3]; IV): 42.3 mL/min/kg
- half-life ([3]; IV): 17.4 min
- AUC(0-inf) ([3]; PO 10 mg/kg): 0.444 µM·h
- Cmax ([3]; PO 10 mg/kg): 0.414 µM
- Tmax ([3]; PO 10 mg/kg): 30 min
- bioavailability ([3]; PO 10 mg/kg): 6%
- half-life ([3]; PO 10 mg/kg): 31.8 min
- AUC(0-inf) ([3]; SC 10 mg/kg): 7.91 µM·h
- Cmax ([3]; SC 10 mg/kg): 4.35 µM
- Tmax ([3]; SC 10 mg/kg): 30 min
- bioavailability ([3]; SC 10 mg/kg): > 100%
- half-life ([3]; SC 10 mg/kg): 50 min
Structure (SMILES): CCN(CC)C(=O)C(c1ccccc1)N1CCN(c2ccc(NC(=O)c3ccccc3-c3cccnc3)cc2F)CC1 (racemic) [Cmpd (A), N-{4-[4-(Diethylcarbamoyl-phenyl-methyl)-piperazin-1-yl]-3-fluoro-phenyl}-2-pyridin-3-yl-benzamide]
- effect on amphetamine-induced hyperactivity [4]: blocked amphetamine-induced hyperactivity
